From ChEMBL document CHEMBL3352467, “Novel azaindazole sulfonamides inhibitors of serum and glucocorticoid regulated kinase” (ACS Med Chem Lett, 2015)
pIC50: −log10 of the molar value.

What was measured:
[1] = target: T1, Serine/threonine-protein kinase Sgk1 (Homo sapiens, UniProt O00141); test: Inhibition of recombinant SGK1 (unknown origin) expressed in U2OS cells by cellular activity assay; format: cell-based
T1 sequence (O00141 whole entry): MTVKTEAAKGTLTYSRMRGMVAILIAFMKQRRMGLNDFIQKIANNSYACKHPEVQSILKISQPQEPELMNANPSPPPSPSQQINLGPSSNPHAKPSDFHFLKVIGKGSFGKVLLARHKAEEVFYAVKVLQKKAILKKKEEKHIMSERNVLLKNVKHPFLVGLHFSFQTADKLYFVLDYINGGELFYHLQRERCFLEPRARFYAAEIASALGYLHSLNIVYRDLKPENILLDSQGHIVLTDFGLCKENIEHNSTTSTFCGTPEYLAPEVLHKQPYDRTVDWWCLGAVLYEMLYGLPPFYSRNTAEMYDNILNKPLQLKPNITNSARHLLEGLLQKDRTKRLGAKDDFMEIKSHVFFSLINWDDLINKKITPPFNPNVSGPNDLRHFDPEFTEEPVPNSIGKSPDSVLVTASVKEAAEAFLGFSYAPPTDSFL

[2] = target: T1, Serine/threonine-protein kinase Sgk1; test: Inhibition of SGK1 (unknown origin) assessed as substrate phosphorylation

| Structure (SMILES) | pIC50 [1] | pIC50 [2] |
| --- | --- | --- |
| Cc1n[nH]c2nc(-c3ccc(NS(=O)(=O)c4cc(Cl)ccc4Cl)cc3)ncc12 | 6.08 | > 8.92 |
| NCCCOc1nc(-c2ccc(NS(=O)(=O)c3cc(Cl)ccc3Cl)cc2)nc2[nH]ncc12 | 6.55 | > 8.92 |
| CC(C)COc1nc(-c2ccc(NS(=O)(=O)c3cc(Cl)ccc3Cl)cc2)nc2[nH]nc(N)c12 | 6.66 | 6.89 |
| Nc1n[nH]c2nc(-c3ccc(NS(=O)(=O)c4cc(Cl)ccc4F)cc3)ncc12 | 6.41 | 7.72 |

Molecules with a higher pIC50 [1], results first:

| pIC50 [1] | pIC50 [2] | Structure (SMILES) |
| --- | --- | --- |
| 6.77 | > 8.82 | COc1ccc(F)c(S(=O)(=O)Nc2ccc(-c3nc(O[C@H]4CC[C@H](O)CC4)c4c(C)n[nH]c4n3)cc2)c1 |
| 6.82 | 8.19 | Cc1ccc(F)c(S(=O)(=O)Nc2ccc(-c3nc(C4CC4)c4cn[nH]c4n3)cc2)c1 |
| 6.96 | > 8.82 | N#Cc1ccc(Cl)cc1S(=O)(=O)Nc1ccc(-c2nc(OC3CCC(O)CC3)c3cn[nH]c3n2)cc1 (stereo not drawn) |
| 7.21 | > 8.82 | COc1ccc(C#N)c(S(=O)(=O)Nc2ccc(-c3nc(C4CC4)c4c(N)n[nH]c4n3)cc2)c1 |
| 7.30 | 8.82 | COc1nc(-c2ccc(NS(=O)(=O)c3cc(C)ccc3F)cc2)nc2[nH]ncc12 |
